{"source": "PubChem BioAssay AID328", "about": "(DTP/NCI, 2004)", "system": "BDF1 mice, P388 leukemia ip, median survival T/C", "test": "NCI In Vivo Anticancer Drug Screen. Data for tumor model P388 Leukemia (intraperitoneal) in B6D2F1 (BDF1) mice", "details": "endpoint: median survival time, higher = longer survival", "procedure,_shortened": "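In tumour-bearing mice, survival after compound treatment is set against the vehicle group and given as a quotient.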", "key": {"[1]": {"details": "dose: 25.0 mg/kg/injection, schedule: Q04DX003 (ip), vehicle: saline"}, "[2]": {"details": "dose: 50.0 mg/kg/injection, schedule: Q04DX003 (ip), vehicle: saline"}, "[3]": {"details": "dose: 100.0 mg/kg/injection, schedule: Q04DX003 (ip), vehicle: saline"}, "[4]": {"details": "dose: 200.0 mg/kg/injection, schedule: Q04DX003 (ip), vehicle: saline"}, "[5]": {"details": "dose: 100.0 mg/kg/injection, schedule: Q04DX003 (ip), vehicle: saline with Tween-80"}, "[6]": {"details": "dose: 200.0 mg/kg/injection, schedule: Q04DX003 (ip), vehicle: saline with Tween-80"}, "[7]": {"details": "dose: 400.0 mg/kg/injection, schedule: Q04DX003 (ip), vehicle: saline with Tween-80"}, "[8]": {"details": "dose: 50.0 mg/kg/injection, schedule: Q01DX009 (ip), vehicle: saline with Tween-80"}, "[9]": {"details": "dose: 100.0 mg/kg/injection, schedule: Q01DX009 (ip), vehicle: saline with Tween-80"}}, "note": "Values joined by “and” are separate entries in the source; they are usually repeats but may differ in a detail not shown here. Equal values may be shown once. Inconclusive results and toxic doses are left out."}
{"smiles": "O=P(N1CCCCCC1)(N1CC1)N1CC1", "values": [{"measurement": "T/C", "setting": "dose: 5.0 mg/kg/injection, schedule: Q01DX009 (ip), vehicle: saline", "result": "168 % of control"}, {"measurement": "T/C", "setting": "dose: 6.25 mg/kg/injection, schedule: Q04DX003 (ip), vehicle: saline", "result": "95 % of control"}, {"measurement": "T/C", "setting": "dose: 7.0 mg/kg/injection, schedule: Q04DX003 (ip), vehicle: saline", "result": "112 % of control"}, {"measurement": "T/C", "setting": "dose: 8.0 mg/kg/injection, schedule: Q01DX009 (ip), vehicle: saline", "result": "157 % of control and 222 % of control"}, {"measurement": "T/C", "setting": "dose: 11.0 mg/kg/injection, schedule: Q04DX003 (ip), vehicle: saline", "result": "150 % of control"}, {"measurement": "T/C", "setting": "dose: 16.5 mg/kg/injection, schedule: Q04DX003 (ip), vehicle: saline", "result": "180 % of control"}, {"measurement": "T/C", "setting": "dose: 17.0 mg/kg/injection, schedule: Q04DX003 (ip), vehicle: saline", "result": "166 % of control and 181 % of control"}, {"measurement": "T/C", "setting": "[1]", "result": "218 % of control [middle of 4 runs]"}, {"measurement": "T/C", "setting": "[2]", "result": "162 % of control"}]}
{"smiles": "O", "values": [{"measurement": "T/C", "setting": "dose: 100.0 mg/kg/injection, schedule: Q01DX001 (ip), vehicle: saline", "result": "95 % of control"}, {"measurement": "T/C", "setting": "[3]", "result": "105 % of control"}, {"measurement": "T/C", "setting": "dose: 200.0 mg/kg/injection, schedule: Q01DX001 (ip), vehicle: saline", "result": "90 % of control"}, {"measurement": "T/C", "setting": "[4]", "result": "95 % of control"}, {"measurement": "T/C", "setting": "dose: 400.0 mg/kg/injection, schedule: Q01DX001 (ip), vehicle: saline", "result": "90 % of control"}, {"measurement": "T/C", "setting": "dose: 400.0 mg/kg/injection, schedule: Q04DX003 (ip), vehicle: saline", "result": "105 % of control"}]}
{"smiles": "CCCC(O)C1CCCCC1O", "note": "(configuration not stated)", "values": [{"measurement": "T/C", "setting": "[5]", "result": "100 % of control"}, {"measurement": "T/C", "setting": "[6]", "result": "100 % of control"}, {"measurement": "T/C", "setting": "[7]", "result": "100 % of control"}]}
{"smiles": "O=C(O)c1ccc(N=NSc2ncnc3nc[nH]c23)cc1O", "values": [{"measurement": "T/C", "setting": "dose: 1.3 mg/kg/injection, schedule: Q01DX009 (ip), vehicle: saline with Tween-80", "result": "115 % of control"}, {"measurement": "T/C", "setting": "dose: 3.0 mg/kg/injection, schedule: Q01DX009 (ip), vehicle: saline with Tween-80", "result": "153 % of control"}, {"measurement": "T/C", "setting": "dose: 4.0 mg/kg/injection, schedule: Q01DX009 (ip), vehicle: saline with Tween-80", "result": "150 % of control"}, {"measurement": "T/C", "setting": "dose: 6.0 mg/kg/injection, schedule: Q01DX009 (ip), vehicle: saline with Tween-80", "result": "119 % of control and 123 % of control"}, {"measurement": "T/C", "setting": "dose: 9.0 mg/kg/injection, schedule: Q01DX009 (ip), vehicle: saline with Tween-80", "result": "123 % of control"}, {"measurement": "T/C", "setting": "dose: 12.0 mg/kg/injection, schedule: Q01DX009 (ip), vehicle: saline with Tween-80", "result": "96 % of control"}, {"measurement": "T/C", "setting": "dose: 14.5 mg/kg/injection, schedule: Q04DX003 (ip), vehicle: saline with Tween-80", "result": "122 % of control"}, {"measurement": "T/C", "setting": "dose: 22.0 mg/kg/injection, schedule: Q04DX003 (ip), vehicle: saline with Tween-80", "result": "122 % of control"}, {"measurement": "T/C", "setting": "dose: 25.0 mg/kg/injection, schedule: Q04DX003 (ip), vehicle: saline with Tween-80", "result": "161 % of control"}, {"measurement": "T/C", "setting": "dose: 33.0 mg/kg/injection, schedule: Q04DX003 (ip), vehicle: saline with Tween-80", "result": "118 % of control and 119 % of control"}, {"measurement": "T/C", "setting": "dose: 50.0 mg/kg/injection, schedule: Q04DX003 (ip), vehicle: saline with Tween-80", "result": "177 % of control"}, {"measurement": "T/C", "setting": "dose: 75.0 mg/kg/injection, schedule: Q04DX003 (ip), vehicle: saline with Tween-80", "result": "119 % of control"}]}
{"smiles": "COc1ccc(/C=C/C(=O)c2ccc(OC)c(OCc3ccccc3)c2)cc1OC", "values": [{"measurement": "T/C", "setting": "dose: 25.0 mg/kg/injection, schedule: Q01DX009 (ip), vehicle: water", "result": "97 % of control"}, {"measurement": "T/C", "setting": "dose: 50.0 mg/kg/injection, schedule: Q01DX009 (ip), vehicle: water", "result": "100 % of control and 121 % of control"}, {"measurement": "T/C", "setting": "dose: 50.0 mg/kg/injection, schedule: Q04DX003 (ip), vehicle: water", "result": "100 % of control"}, {"measurement": "T/C", "setting": "dose: 100.0 mg/kg/injection, schedule: Q01DX009 (ip), vehicle: water", "result": "100 % of control and 111 % of control"}, {"measurement": "T/C", "setting": "dose: 100.0 mg/kg/injection, schedule: Q04DX003 (ip), vehicle: water", "result": "94 % of control"}, {"measurement": "T/C", "setting": "dose: 200.0 mg/kg/injection, schedule: Q01DX009 (ip), vehicle: water", "result": "95 % of control and 101 % of control"}, {"measurement": "T/C", "setting": "dose: 200.0 mg/kg/injection, schedule: Q04DX003 (ip), vehicle: water", "result": "86 % of control"}, {"measurement": "T/C", "setting": "dose: 400.0 mg/kg/injection, schedule: Q01DX009 (ip), vehicle: water", "result": "97 % of control"}, {"measurement": "T/C", "setting": "dose: 400.0 mg/kg/injection, schedule: Q04DX003 (ip), vehicle: water", "result": "88 % of control"}, {"measurement": "T/C", "setting": "dose: 600.0 mg/kg/injection, schedule: Q01DX009 (ip), vehicle: water", "result": "91 % of control"}]}
{"smiles": "CN(C)N=Nc1ccccc1C(N)=O", "values": [{"measurement": "T/C", "setting": "dose: 22.0 mg/kg/injection, schedule: Q01DX009 (ip), vehicle: saline with Tween-80", "result": "111 % of control"}, {"measurement": "T/C", "setting": "dose: 26.6 mg/kg/injection, schedule: Q01DX009 (ip), vehicle: saline with Tween-80", "result": "104 % of control"}, {"measurement": "T/C", "setting": "dose: 33.0 mg/kg/injection, schedule: Q01DX009 (ip), vehicle: saline with Tween-80", "result": "100 % of control"}, {"measurement": "T/C", "setting": "dose: 40.0 mg/kg/injection, schedule: Q01DX009 (ip), vehicle: saline with Tween-80", "result": "91 % of control"}, {"measurement": "T/C", "setting": "[8]", "result": "111 % of control"}, {"measurement": "T/C", "setting": "dose: 60.0 mg/kg/injection, schedule: Q01DX009 (ip), vehicle: saline with Tween-80", "result": "120 % of control"}, {"measurement": "T/C", "setting": "dose: 75.0 mg/kg/injection, schedule: Q01DX009 (ip), vehicle: saline with Tween-80", "result": "161 % of control"}]}
{"smiles": "CN(C)C", "values": [{"measurement": "T/C", "setting": "[2]", "result": "100 % of control"}, {"measurement": "T/C", "setting": "[3]", "result": "100 % of control"}, {"measurement": "T/C", "setting": "[4]", "result": "109 % of control"}]}
{"smiles": "Cc1cc(O)n(Cc2ccccc2)c(=O)c1", "values": [{"measurement": "T/C", "setting": "[5]", "result": "102 % of control"}, {"measurement": "T/C", "setting": "[6]", "result": "87 % of control"}, {"measurement": "T/C", "setting": "[7]", "result": "107 % of control"}]}
{"smiles": "C=C1CC[N+]2(CC(C)C)CCCC12", "note": "(configuration not stated)", "values": [{"measurement": "T/C", "setting": "dose: 12.5 mg/kg/injection, schedule: Q04DX003 (ip), vehicle: saline", "result": "107 % of control"}, {"measurement": "T/C", "setting": "[1]", "result": "102 % of control"}, {"measurement": "T/C", "setting": "[2]", "result": "106 % of control"}]}
{"smiles": "COc1ccc2[nH]c3cc(Cl)ccc3c(=O)c2c1", "values": [{"measurement": "T/C", "setting": "[9]", "result": "100 % of control"}, {"measurement": "T/C", "setting": "dose: 200.0 mg/kg/injection, schedule: Q01DX009 (ip), vehicle: saline with Tween-80", "result": "100 % of control"}, {"measurement": "T/C", "setting": "dose: 400.0 mg/kg/injection, schedule: Q01DX009 (ip), vehicle: saline with Tween-80", "result": "90 % of control"}]}
{"smiles": "CCOC(=O)[C@]1(Br)CC[C@@]1(Br)C(=O)OCC", "values": [{"measurement": "T/C", "setting": "dose: 25.0 mg/kg/injection, schedule: Q01DX009 (ip), vehicle: saline with Tween-80", "result": "112 % of control"}, {"measurement": "T/C", "setting": "[8]", "result": "113 % of control and 114 % of control"}, {"measurement": "T/C", "setting": "[9]", "result": "117 % of control"}]}
